Source: patent US20230234942A1, “COMPOUNDS FOR TREATING HUNTINGTON'S DISEASE” (PTC Therapeutics, Inc., priority 2020, published 2023)

Test system: Endogenous Huntingtin Protein
Test: Endogenous Huntingtin Protein Assay (ELISA-based MSD electrochemiluminescence)
Assay type: cell-based
Conditions: Table 2; MSD plates coated with MW1 (expanded polyglutamine) or MAB2166 capture antibody; "inactive" = result above the detection limit of the assay
Summary of the method: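 Endogenous huntingtin measured on MSD plates coated with MW1 (polyglutamine-expanded) or MAB2166 capture antibody; lysates bound overnight at 4 °C. Signal developed with #56565 rabbit monoclonal and goat anti-rabbit SULFO-TAG (0.25 µg/mL, 1 h RT each), electrochemiluminescence read on SI 6000.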

| SMILES | IC50 [nM] |
| --- | --- |
| CC(C)[C@H]1CN(c2ncc(-c3ccc(-n4ccnc4)cc3O)nn2)CCN1 [Cpd 142, 5-(1H-imidazol-1-yl)-2-{3-[(3S)-3-(propan-2-yl)piperazin-1-yl]-1,2,4-triazin-6-yl}phenol] | 60.3 |
| CC(C)C1CN(c2ncc(-c3ccc(-c4cnn(C)c4)cc3O)nn2)CCN1 (stereo not shown) [Cpd 35, 5-(1-methyl-1H-pyrazol-4-yl)-2-{3-[3-(propan-2-yl)piperazin-1-yl]-1,2,4-triazin-6-yl}phenol] | 46.1 |
| Cc1nc2cc(-c3ccc(-c4cnc(N5CCN[C@@H](C(C)C)C5)nn4)c(O)c3)ccn2n1 [Cpd 147, 5-(2-methyl[1,2,4]triazolo[1,5-a]pyridin-7-yl)-2-{3-[(3S)-3-(propan-2-yl)piperazin-1-yl]-1,2,4-triazin-6-yl}phenol] | 38.8 |
| CC(C)[C@H]1CN(c2ncc(-c3ccc(-c4cnn(C)n4)cc3O)nn2)CCN1 [Cpd 262, 5-(2-methyl-2H-1,2,3-triazol-4-yl)-2-{3-[(3S)-3-(propan-2-yl)piperazin-1-yl]-1,2,4-triazin-6-yl}phenol] | 94.2 |
| Cc1ccc2c(cnn2-c2ccc(-c3cnc(N4CCN[C@@H](C(C)C)C4)nn3)c(O)c2)n1 [Cpd 155, 5-(5-methyl-1H-pyrazolo[4,3-b]pyridin-1-yl)-2-{3-[(3S)-3-(propan-2-yl)piperazin-1-yl]-1,2,4-triazin-6-yl}phenol] | 19.5 |
| COc1cc(-c2ccc(-c3cnc(N4C[C@@H](C(C)C)N[C@@H](C)C4)nn3)c(O)c2)ncn1 [Cpd 227, 5-(6-methoxypyrimidin-4-yl)-2-{3-[(3S,5R)-3-methyl-5-(propan-2-yl)piperazin-1-yl]-1,2,4-triazin-6-yl}phenol] | 37.3 |
| CCC1CN(c2ncc(-c3ccc(-c4cn[nH]c4)cc3O)nn2)CCN1 (stereo not shown) [Cpd 24, 2-[3-(3-ethylpiperazin-1-yl)-1,2,4-triazin-6-yl]-5-(1H-pyrazol-4-yl)phenol] | 23.4 |
| COc1cc(-c2ccc(-c3cnc(N4CCN[C@@H](C5CC5)C4)nn3)c(O)c2)ccn1 [Cpd 251, 2-{3-[(3S)-3-cyclopropylpiperazin-1-yl]-1,2,4-triazin-6-yl]-5-(2-methoxypyridin-4-yl)phenol] | 18.6 |
| Oc1cc(-c2cnn3c2CCCC3)ccc1-c1cnc(N2CCNC(C3CC3)C2)nn1 (single isomer, unassigned) [Cpd 277, 2-{3-[(3S)-3-cyclopropylpiperazin-1-yl]-1,2,4-triazin-6-yl}-5-(4,5,6,7-tetrahydropyrazolo[1,5-a]pyridin-3-yl)phenol or 2-{3-[(3R)-3-cyclopropylpiperazin-1-yl]-1,2,4-triazin-6-yl}-5-(4,5,6,7-tetrahydropyrazolo[1,5-a]pyridin-3-yl)phenol] | 24.8 |
| CC(C)[C@H]1CN(c2ncc(-c3ccc(-c4ncn(C)n4)cc3O)nn2)CCN1 [Cpd 259, 5-(1-methyl-1H-1,2,4-triazol-3-yl)-2-{3-[(3S)-3-(propan-2-yl)piperazin-1-yl]-1,2,4-triazin-6-yl}phenol] | 338 |
| [2H]C([2H])([2H])Oc1cc(-c2ccc(-c3cnc(N4CCN(C)C(C(C)(C)O)C4)nn3)c(O)c2)ncn1 (stereo not shown) [Cpd 26, 2-{3-[3-(2-hydroxypropan-2-yl)-4-methylpiperazin-1-yl]-1,2,4-triazin-6-yl}-5-{6-[(^2H3)methyloxy]pyrimidin-4-yl}phenol] | 24.9 |
| CC[C@H]1CN(c2ncc(-c3ccc(-c4cn[nH]c4)cc3O)nn2)CCN1 [Cpd 23, 2-{3-[(3S)-3-ethylpiperazin-1-yl]-1,2,4-triazin-6-yl}-5-(1H-pyrazol-4-yl)phenol] | 22.7 |
| Cc1ccc2c(ccn2-c2ccc(-c3cnc(N4CCN[C@@H](C(C)C)C4)nn3)c(O)c2)n1 [Cpd 159, 5-(5-methyl-1H-pyrrolo[3,2-b]pyridin-1-yl)-2-{3-[(3S)-3-(propan-2-yl)piperazin-1-yl]-1,2,4-triazin-6-yl}phenol] | 62.2 |
| Cc1cn2nc(-c3ccc(-c4cnc(N5C[C@@H](C)N(C)[C@@H](C)C5)nn4)c(O)c3)cc(C#N)c2n1 [Cpd 108, 6-(3-hydroxy-4-{3-[(3R,5S)-3,4,5-trimethylpiperazin-1-yl]-1,2,4-triazin-6-yl]phenyl)-2-methylimidazo[1,2-b]pyridazine-8-carbonitrile] | 19.8 |
| Cc1cc2nc(-c3ccc(-c4cnc(N5C[C@@H](C)N[C@@H](C)C5)nn4)c(O)c3)sc2c(C)n1 [Cpd 116, 2-{3-[(3R,5S)-3,5-dimethylpiperazin-1-yl]-1,2,4-triazin-6-yl}-5-(4,6-dimethyl[1,3]thiazolo[5,4-c]pyridin-2-yl)phenol] | 678 |
| CC(C)[C@H]1CN(c2ncc(-c3ccc(-c4cn[nH]c4)cc3O)nn2)CCN1 [Cpd 20, 2-{3-[(3S)-3-(propan-2-yl)piperazin-1-yl]-1,2,4-triazin-6-yl}-5-(1H-pyrazol-4-yl)phenol] | 17.1 |
| Oc1cc(-c2cn[nH]c2)ccc1-c1cnc(N2CCNC(CC(F)(F)F)C2)nn1 (stereo not shown) [Cpd 146, 5-(1H-pyrazol-4-yl)-2-{3-[3-(2,2,2-trifluoroethyl)piperazin-1-yl]-1,2,4-triazin-6-yl}phenol] | 539 |

The next compounds have a lower IC50 than those just listed; values first:

| IC50 [nM] | SMILES |
| --- | --- |
| 13.4 | Cc1cn2cc(-c3ccc(-c4cnc(N5C[C@@H](C)N[C@@H](C)C5)nn4)c(O)c3)nc(C)c2n1 [Cpd 103, 5-(2,8-dimethylimidazo[1,2-a]pyrazin-6-yl)-2-{3-[(3R,5S)-3,5-dimethylpiperazin-1-yl]-1,2,4-triazin-6-yl}phenol] |
| 13 | [2H]C([2H])([2H])Oc1cc(-c2ccc(-c3cnc(N4CCN[C@@H](CC)C4)nn3)c(O)c2)ncn1 [Cpd 133, 2-{3-[(3S)-3-ethylpiperazin-1-yl]-1,2,4-triazin-6-yl}-5-{6-[(^2H3)methyloxy]pyrimidin-4-yl}phenol] |
| 9.6 | Oc1cc(-n2nccn2)ccc1-c1cnc(N2CCN[C@@H](C3CC3)C2)nn1 [Cpd 11, 2-{3-[(3S)-3-cyclopropylpiperazin-1-yl]-1,2,4-triazin-6-yl}-5-(2H-1,2,3-triazol-2-yl)phenol] |
| 8.3 | Cc1cn2cc(-c3ccc(-c4cnc(N5C[C@@H](C)N(C)[C@@H](C)C5)nn4)c(O)c3)cc(F)c2n1 [Cpd 94, 5-(8-fluoro-2-methylimidazo[1,2-a]pyridin-6-yl)-2-{3-[(3R,5S)-3,4,5-trimethylpiperazin-1-yl]-1,2,4-triazin-6-yl}phenol] |
| 5.1 | Cc1nc2c(C)nc(-c3ccc(-c4cnc(N5CCN[C@@H](C(C)C)C5)nn4)c(O)c3)cn2n1 [Cpd 78, 5-(2,8-dimethyl[1,2,4]triazolo[1,5-a]pyrazin-6-yl)-2-{3-[(3S)-3-(propan-2-yl)piperazin-1-yl]-1,2,4-triazin-6-yl}phenol] |
| 4.3 | CCC1CN(c2ncc(-c3ccc(-c4cc(F)c5nn(C)cc5c4)cc3O)nn2)CCN1 (stereo not shown) [Cpd 74, 2-[3-(3-ethylpiperazin-1-yl)-1,2,4-triazin-6-yl]-5-(7-fluoro-2-methyl-2H-indazol-5-yl)phenol] |
| 4.1 | Cc1cn2cc(-c3ccc(-c4cnc(N5CCN(C)CC5)nn4)c(O)c3)cc(F)c2n1 [Cpd 73, 5-(8-fluoro-2-methylimidazo[1,2-a]pyridin-6-yl)-2-[3-(4-methylpiperazin-1-yl)-1,2,4-triazin-6-yl]phenol] |
| 2.3 | Cc1cn2cc(-c3ccc(-c4cnc(N5CCN[C@@H](C(C)C)C5)nn4)c(O)c3)ncc2n1 [Cpd 141, 5-(2-methylimidazo[1,2-a]pyrazin-6-yl)-2-{3-[(3S)-3-(propan-2-yl)piperazin-1-yl]-1,2,4-triazin-6-yl}phenol] |
